Results as given in US11008337B2, “Chiral diaryl macrocycles as modulators of protein kinases” (Turning Point Therapeutics, Inc., priority 2015, dated 2021).

What was measured:
Assay type in all cases: cell-based
[1] = test system: Colorectal cell lines KM 12 (harboring endogenous TPM3-TRKA fusion gene); test: Cell proliferation assay, KM12 cells (CellTiter-Glo); conditions: Homo sapiens, 72 hours incubation
Experimental: (§1) Cell Proliferation Assays.
Colorectal cell lines KM 12 (harboring endogenous TPM3-TRKA fusion gene) cells were cultured in DMEM medium, supplemented with 10% fetal bovine serum and 100 U/mL of penicillin/streptomycin. 5000 cells were seeded in 384 well white plate for 24 hours before compounds treatment. Cell proliferation was measured using CellTiter-Glo luciferase-based ATP detection assay (Promega) following the manufactures's protocol after 72 hours incubation. IC50 determinations were performed using GraphPad Prism software (GraphPad, Inc., San Diego, Calif.). […] 5000 cells were seeded in 384 well white plate for 24 hours before compounds treatment. Cell proliferation was measured using CellTiter-Glo luciferase-based ATP detection assay (Promega) following the manufactures's protocol after 72 hours incubation. IC50 determinations were performed using GraphPad Prism software (GraphPad, Inc., San Diego, Calif.).

[2] = test system: essential thrombocythemia cell line SET-2 cells (harboring endogenous JAK2 point mutation); test: Cell proliferation assay, SET-2 cells (CellTiter-Glo); conditions: Homo sapiens, 72 hours incubation, read-out: Cell Proliferation IC50 SET2
Experimental: as §1
(§2) Colorectal cell lines KM 12 (harboring endogenous TPM3-TRKA fusion gene) cells were cultured in DMEM medium, supplemented with 10% fetal bovine serum and 100 U/mL of penicillin/streptomycin. 5000 cells were seeded in 384 well white plate for 24 hours before compounds treatment. Cell proliferation was measured using CellTiter-Glo luciferase-based ATP detection assay (Promega) following the manufactures's protocol after 72 hours incubation. IC50 determinations were performed using GraphPad Prism software (GraphPad, Inc., San Diego, Calif.). Alternatively, essential thrombocythemia cell line SET-2 cells (harboring endogenous JAK2 […] point mutation) or T cell lymphoma Karpas-299 cell line (harboring endogenous NPM-ALK fusion gene) were cultured in RPMI medium, supplemented with 10% fetal bovine serum and 100 U/mL of penicillin/streptomycin. 5000 cells were seeded in 384 well white plate for 24 hours before compounds treatment. Cell proliferation was measured using CellTiter-Glo luciferase-based ATP detection assay (Promega) following the manufactures's protocol after 72 hours incubation. IC50 determinations were performed using GraphPad Prism software (GraphPad, Inc., San Diego, Calif.).

[3] = target: T1, CD74-ROS1 Ba/F3 (Homo sapiens, UniProt P08922); test: Cell proliferation assay, CD74-ROS1 Ba/F3 stable cell line (CellTiter-Glo); conditions: Ba/F3-CD74-ROS1 wild type cells, 72 hours compound incubation; read-out: Cell Proliferation IC50 CD74-ROS1 Ba/F3
T1 construct: fused on or other part: P04233 (HLA class II histocompatibility antigen gamma chain)
T1 sequence (P08922 whole entry, change not shown, the tested form may be a part): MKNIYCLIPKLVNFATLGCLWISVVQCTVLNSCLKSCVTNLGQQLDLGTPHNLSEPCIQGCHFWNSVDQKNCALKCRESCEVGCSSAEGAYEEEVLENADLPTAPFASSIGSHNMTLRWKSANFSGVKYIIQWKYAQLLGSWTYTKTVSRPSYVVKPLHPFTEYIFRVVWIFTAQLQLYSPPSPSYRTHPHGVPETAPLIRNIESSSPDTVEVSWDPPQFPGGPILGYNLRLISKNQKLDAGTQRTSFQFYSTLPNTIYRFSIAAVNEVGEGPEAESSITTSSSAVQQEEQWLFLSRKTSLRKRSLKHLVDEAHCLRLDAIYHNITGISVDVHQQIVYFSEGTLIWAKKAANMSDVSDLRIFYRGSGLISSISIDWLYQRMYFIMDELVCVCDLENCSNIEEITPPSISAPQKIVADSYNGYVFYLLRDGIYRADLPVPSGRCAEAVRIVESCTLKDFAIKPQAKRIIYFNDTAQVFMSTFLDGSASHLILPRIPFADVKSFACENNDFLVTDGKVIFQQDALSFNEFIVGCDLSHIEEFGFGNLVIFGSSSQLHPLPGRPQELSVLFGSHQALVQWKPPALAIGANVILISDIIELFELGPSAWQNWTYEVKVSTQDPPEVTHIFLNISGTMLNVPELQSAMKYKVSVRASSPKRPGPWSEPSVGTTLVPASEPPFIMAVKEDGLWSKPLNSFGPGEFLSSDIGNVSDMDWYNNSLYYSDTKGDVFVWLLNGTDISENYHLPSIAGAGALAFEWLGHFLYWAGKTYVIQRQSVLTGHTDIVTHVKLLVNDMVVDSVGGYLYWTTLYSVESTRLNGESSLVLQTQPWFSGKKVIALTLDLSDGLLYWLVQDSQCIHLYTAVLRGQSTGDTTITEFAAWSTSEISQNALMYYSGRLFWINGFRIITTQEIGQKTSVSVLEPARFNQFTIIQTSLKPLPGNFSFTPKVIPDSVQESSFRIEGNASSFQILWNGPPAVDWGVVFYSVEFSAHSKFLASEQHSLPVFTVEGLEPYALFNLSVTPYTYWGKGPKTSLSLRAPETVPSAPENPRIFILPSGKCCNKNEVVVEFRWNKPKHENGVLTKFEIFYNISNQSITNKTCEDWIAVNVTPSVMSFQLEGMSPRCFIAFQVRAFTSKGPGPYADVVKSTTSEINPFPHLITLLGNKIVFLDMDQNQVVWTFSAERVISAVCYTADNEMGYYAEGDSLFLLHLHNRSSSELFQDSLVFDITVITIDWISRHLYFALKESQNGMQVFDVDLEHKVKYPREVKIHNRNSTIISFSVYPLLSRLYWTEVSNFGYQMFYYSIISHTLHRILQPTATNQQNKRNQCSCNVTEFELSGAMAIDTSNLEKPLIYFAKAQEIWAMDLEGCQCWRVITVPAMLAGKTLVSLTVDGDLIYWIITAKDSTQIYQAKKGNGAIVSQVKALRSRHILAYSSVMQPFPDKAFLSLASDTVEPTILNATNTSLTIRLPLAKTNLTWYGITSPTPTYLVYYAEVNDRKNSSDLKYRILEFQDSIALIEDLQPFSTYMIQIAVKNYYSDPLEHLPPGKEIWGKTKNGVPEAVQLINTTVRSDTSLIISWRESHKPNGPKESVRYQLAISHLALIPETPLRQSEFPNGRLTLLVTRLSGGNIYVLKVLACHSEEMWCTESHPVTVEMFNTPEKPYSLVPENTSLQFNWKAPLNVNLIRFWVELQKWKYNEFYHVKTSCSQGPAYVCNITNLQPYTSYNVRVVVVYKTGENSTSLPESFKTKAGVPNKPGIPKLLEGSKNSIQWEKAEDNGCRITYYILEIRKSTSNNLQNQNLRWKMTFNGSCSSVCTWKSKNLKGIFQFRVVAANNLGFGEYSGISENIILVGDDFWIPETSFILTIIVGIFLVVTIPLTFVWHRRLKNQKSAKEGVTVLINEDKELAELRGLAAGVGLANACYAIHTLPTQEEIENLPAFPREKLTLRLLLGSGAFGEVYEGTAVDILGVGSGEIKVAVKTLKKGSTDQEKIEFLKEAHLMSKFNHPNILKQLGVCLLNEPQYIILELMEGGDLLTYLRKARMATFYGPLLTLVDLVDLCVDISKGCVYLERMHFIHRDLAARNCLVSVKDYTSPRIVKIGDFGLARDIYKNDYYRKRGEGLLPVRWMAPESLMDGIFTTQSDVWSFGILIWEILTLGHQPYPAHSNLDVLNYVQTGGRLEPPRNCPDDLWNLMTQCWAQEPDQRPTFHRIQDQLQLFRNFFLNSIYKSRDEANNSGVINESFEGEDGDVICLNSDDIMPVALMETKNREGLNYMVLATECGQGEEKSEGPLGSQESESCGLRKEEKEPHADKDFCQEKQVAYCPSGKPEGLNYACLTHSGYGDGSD
Description: (§3) Creation of CD74-ROS1 and EML4-ALK Ba/F3 Stable Cell Lines and Cell Proliferation Assays.
(§4) The CD74-ROS1 wild-type gene and EML4-ALK wild-type gene (variant 1) were synthesized at GenScript and cloned into pCDH-CMV-MCS-EF1-Puro plasmid (System Biosciences, Inc). Ba/F3-CD74-ROS1 and Ba/F3-EML4-ALK wild type cell lines were generated by infecting Ba/F3 cells with lentivirus containing CD74-ROS1 wide-type and EML4-ALK wild type. Stable cell lines were selected by puromycin treatment, followed by IL-3 withdrawal. 3000 cells were seeded in 384 well white plate overnight before compound treatment. Cell proliferation was measured using CellTiter-Glo luciferase-based ATP detection assay (Promega) following the manufactures's protocol after 72 hours of various concentration of compound incubation. IC50 determinations were performed using GraphPad Prism software (GraphPad, Inc., San Diego, Calif.).

[4] = target: T2, EML4-ALK Ba/F3 (Homo sapiens, UniProt Q9UM73); test: Cell proliferation assay, EML4-ALK Ba/F3 stable cell line (CellTiter-Glo); conditions: Ba/F3-EML4-ALK wild type (variant 1) cells, 72 hours compound incubation; read-out: Cell Proliferation IC50 EML4-ALK Ba/F3
T2 construct: fused on or other part: Q9HC35 (Echinoderm microtubule-associated protein-like 4)
T2 sequence (Q9UM73 whole entry, change not shown, the tested form may be a part): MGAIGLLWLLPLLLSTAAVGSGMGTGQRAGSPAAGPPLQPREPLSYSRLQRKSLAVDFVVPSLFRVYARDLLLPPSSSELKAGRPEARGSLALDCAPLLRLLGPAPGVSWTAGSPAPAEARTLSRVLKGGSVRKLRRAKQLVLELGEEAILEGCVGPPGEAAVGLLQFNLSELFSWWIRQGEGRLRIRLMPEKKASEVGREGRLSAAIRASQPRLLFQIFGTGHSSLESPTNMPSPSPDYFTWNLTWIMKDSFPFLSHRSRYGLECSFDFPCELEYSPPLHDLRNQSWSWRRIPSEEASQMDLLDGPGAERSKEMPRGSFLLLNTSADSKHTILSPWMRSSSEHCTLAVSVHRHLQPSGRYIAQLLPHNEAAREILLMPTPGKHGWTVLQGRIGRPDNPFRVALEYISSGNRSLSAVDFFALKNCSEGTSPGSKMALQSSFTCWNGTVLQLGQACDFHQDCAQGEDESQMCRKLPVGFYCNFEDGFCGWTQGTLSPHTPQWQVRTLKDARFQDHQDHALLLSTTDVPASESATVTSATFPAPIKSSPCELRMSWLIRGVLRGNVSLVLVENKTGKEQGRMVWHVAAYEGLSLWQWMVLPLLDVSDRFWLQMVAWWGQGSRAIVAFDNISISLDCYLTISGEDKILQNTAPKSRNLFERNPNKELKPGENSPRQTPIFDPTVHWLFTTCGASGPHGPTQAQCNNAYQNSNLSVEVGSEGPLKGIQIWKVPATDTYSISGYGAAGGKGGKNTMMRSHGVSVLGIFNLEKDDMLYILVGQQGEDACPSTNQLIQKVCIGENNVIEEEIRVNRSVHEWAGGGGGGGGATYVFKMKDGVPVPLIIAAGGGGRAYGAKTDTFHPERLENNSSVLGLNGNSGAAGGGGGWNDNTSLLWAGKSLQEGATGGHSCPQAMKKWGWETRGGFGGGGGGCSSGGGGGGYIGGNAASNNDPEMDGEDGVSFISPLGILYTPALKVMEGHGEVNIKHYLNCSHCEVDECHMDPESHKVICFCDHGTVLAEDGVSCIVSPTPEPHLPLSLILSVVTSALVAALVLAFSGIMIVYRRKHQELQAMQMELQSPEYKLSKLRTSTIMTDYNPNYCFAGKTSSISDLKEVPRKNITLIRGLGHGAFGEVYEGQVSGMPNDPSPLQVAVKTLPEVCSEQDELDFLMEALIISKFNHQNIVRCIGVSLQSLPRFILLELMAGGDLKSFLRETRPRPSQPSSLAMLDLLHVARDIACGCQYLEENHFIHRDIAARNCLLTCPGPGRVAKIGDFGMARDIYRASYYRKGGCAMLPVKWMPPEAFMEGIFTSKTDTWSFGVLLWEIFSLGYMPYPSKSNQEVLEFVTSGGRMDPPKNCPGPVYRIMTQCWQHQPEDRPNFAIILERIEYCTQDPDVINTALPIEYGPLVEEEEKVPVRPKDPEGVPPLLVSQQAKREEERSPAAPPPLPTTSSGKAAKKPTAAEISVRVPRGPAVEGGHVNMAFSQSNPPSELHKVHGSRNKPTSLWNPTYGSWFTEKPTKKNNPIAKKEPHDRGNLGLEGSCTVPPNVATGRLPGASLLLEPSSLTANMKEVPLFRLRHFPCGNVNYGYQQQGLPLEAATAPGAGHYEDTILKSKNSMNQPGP
Description: as §3, §4

[5] = test system: T cell lymphoma Karpas-299 cell line (harboring endogenous NPM-ALK fusion gene); test: Cell proliferation assay, Karpas-299 cells (CellTiter-Glo); conditions: Homo sapiens, 72 hours incubation
Experimental: as §1, §2

CC[C@H]1COc2ccc(F)cc2[C@@H](C)Nc2ccn3ncc(c3n2)C(=O)N1 [Compound 4, (6S,13R)-6-ethyl-11-fluoro-13-methyl-6,7,13,14-tetrahydro-1,15-ethenopyrazolo[4,3-f][1,4,8,10]benzoxatriazacyclotridecin-4(5H)-one]
IC50 [1]: 0.3 nM
IC50 [2]: 1370 nM
GI50 [3]: 0.2 nM
GI50 [4]: 892 nM
IC50 [5]: 1370 nM

CC[C@H]1Nc2ccn3ncc(c3n2)C(=O)NCCOc2ccc(F)cc21 [Compound 19, (13R)-13-ethyl-11-fluoro-6,7,13,14-tetrahydro-1,15-ethenopyrazolo[4,3-f][1,4,8,10]benzoxatriazacyclotridecin-4(5H)-one]
IC50 [1]: 0.6 nM
IC50 [2]: 294 nM
GI50 [3]: 0.5 nM
GI50 [4]: 406 nM
IC50 [5]: 193 nM

C[C@H]1CNC(=O)c2cnn3ccc(nc23)NC(C(=O)N(C)C)c2cc(F)ccc2O1 (stereo partly drawn) [Compound 62, (7S)-11-fluoro-N,N,7-trimethyl-4-oxo-4,5,6,7,13,14-hexahydro-1,15-ethenopyrazolo[4,3-f][1,4,8,10]benzoxatriazacyclotridecine-13-carboxamide]
IC50 [1]: 112 nM
IC50 [2]: 3570 nM
GI50 [4]: 3000 nM

C[C@H]1Nc2ccn3ncc(c3n2)C(=O)NC[C@@H](CN2CCCC2)Oc2ccc(F)cc21 [Compound 57, (7S,13R)-11-fluoro-13-methyl-7-[(pyrrolidin-1-yl)methyl]-6,7,13,14-tetrahydro-1,15-ethenopyrazolo[4,3-f][1,4,8,10]benzoxatriazacyclotridecin-4(5H)-one]
IC50 [1]: 70 nM
IC50 [2]: 132 nM
GI50 [4]: 665 nM

C[C@H]1Nc2ccn3ncc(c3n2)C(=O)N2CCC[C@@H](C2)Oc2ccc(F)cc21 [Compound 53, (9S,15R)-13-fluoro-15-methyl-6,7,8,9,15,16-hexahydro-4H-1,17-etheno-5,9-methanopyrazolo[4,3-h][1,6,10,12]benzoxatriazacyclopentadecin-4-one]
IC50 [1]: 37.3 nM
IC50 [2]: 505 nM
GI50 [4]: 3000 nM

C[C@H]1CNC(=O)c2cnn3ccc(nc23)N[C@H](C)c2cc(F)cnc2O1 [Compound 60, (7S,13R)-11-fluoro-7,13-dimethyl-6,7,13,14-tetrahydro-1,15-ethenopyrazolo[4,3-f]pyrido[3,2-l][1,4,8,10]oxatriazacyclotridecin-4(5H)-one]
IC50 [1]: 0.35 nM
IC50 [2]: 30.3 nM
GI50 [4]: 218 nM

C[C@@H]1Nc2ccn3ncc(c3n2)C(=O)NC[C@H](C)Oc2ncc(F)cc21 [Compound 59, (7S,13S)-11-fluoro-7,13-dimethyl-6,7,13,14-tetrahydro-1,15-ethenopyrazolo[4,3-f]pyrido[3,2-l][1,4,8,10]oxatriazacyclotridecin-4(5H)-one]
IC50 [1]: 5.5 nM
IC50 [2]: 402 nM
GI50 [4]: 2000 nM

C[C@H]1Nc2ccn3ncc(c3n2)C(=O)N[C@H]2CCC[C@H]2Oc2ccc(F)cc21 [Compound 41, (3aR,9R,17aS)-7-fluoro-9-methyl-1,2,3,3a,9,10,17,17a-octahydro-16H-11,13-ethenocyclopenta[b]pyrazolo[4,3-f][1,4,8,10]benzoxatriazacyclotridecin-16-one]
IC50 [1]: 3 nM
IC50 [2]: 78.5 nM
GI50 [4]: 150 nM

C[C@H]1Nc2ccn3ncc(c3n2)C(=O)N[C@H]2CCCC[C@@H]2Oc2ccc(F)cc21 [Compound 44, (4aS,10R,18aS)-8-fluoro-10-methyl-2,3,4,4a,10,11,18,18a-octahydro-12,14-ethenodibenzo[b,l]pyrazolo[4,3-f][1,4,8,10]oxatriazacyclotridecin-17(1H)-one]
IC50 [1]: 56 nM
IC50 [2]: 1800 nM
GI50 [4]: 3000 nM

C[C@H]1Nc2ccn3ncc(c3n2)C(=O)N2CCC(CC2)Oc2ccc(F)cc21 [Compound 54]
IC50 [1]: 464 nM
IC50 [2]: > 10000 nM
GI50 [4]: > 10000 nM

CC[C@@H]1CNC(=O)c2cnn3ccc(nc23)N[C@H](C)c2cc(F)cnc2O1 [Compound 58, (7R,13R)-7-ethyl-11-fluoro-13-methyl-6,7,13,14-tetrahydro-1,15-ethenopyrazolo[4,3-f]pyrido[3,2-l][1,4,8,10]oxatriazacyclotridecin-4(5H)-one]
IC50 [1]: 0.2 nM
IC50 [2]: 174 nM
GI50 [4]: 31 nM

C[C@H]1Nc2ccn3ncc(c3n2)C(=O)NC[C@@H](CN(C)C)Oc2ccc(F)cc21 [Compound 55, (7S,13R)-7-[(dimethylamino)methyl]-11-fluoro-13-methyl-6,7,13,14-tetrahydro-1,15-ethenopyrazolo[4,3-f][1,4,8,10]benzoxatriazacyclotridecin-4(5H)-one]
IC50 [1]: 23.5 nM
IC50 [2]: 300 nM
GI50 [4]: 709 nM

C[C@H]1Nc2ccn3ncc(c3n2)C(=O)N[C@@H]2CCC[C@@H]2Oc2ccc(F)cc21 [Compound 42, (3aS,9R,17aR)-7-fluoro-9-methyl-1,2,3,3a,9,10,17,17a-octahydro-16H-11,13-ethenocyclopenta[b]pyrazolo[4,3-f][1,4,8,10]benzoxatriazacyclotridecin-16-one]
IC50 [1]: 0.2 nM
IC50 [2]: 30 nM
GI50 [4]: 80 nM

C[C@H]1Nc2ccn3ncc(c3n2)C(=O)N[C@H]2CCC[C@@H]2Oc2ccc(F)cc21 [Compound 46, (3aS,9R,17aS)-7-fluoro-9-methyl-1,2,3,3a,9,10,17,17a-octahydro-16H-11,13-ethenocyclopenta[b]pyrazolo[4,3-f][1,4,8,10]benzoxatriazacyclotridecin-16-one]
IC50 [1]: 11 nM
IC50 [2]: 400 nM
GI50 [4]: 2000 nM

CNC(=O)C1Nc2ccn3ncc(c3n2)C(=O)NC[C@H](C)Oc2ccc(F)cc21 (stereo partly drawn) [Compound 61, (7S)-11-fluoro-N,7-dimethyl-4-oxo-4,5,6,7,13,14-hexahydro-1,15-ethenopyrazolo[4,3-f][1,4,8,10]benzoxatriazacyclotridecine-13-carboxamide]
IC50 [1]: 73.7 nM
IC50 [2]: 1070 nM
GI50 [4]: 8000 nM

COC[C@@H]1CNC(=O)c2cnn3ccc(nc23)N[C@H](C)c2cc(F)ccc2O1 [Compound 25, (7S,13R)-11-fluoro-7-(methoxymethyl)-13-methyl-6,7,13,14-tetrahydro-1,15-ethenopyrazolo[4,3-f][1,4,8,10]benzoxatriazacyclotridecin-4(5H)-one]
IC50 [1]: 6.1 nM
IC50 [2]: 134 nM
GI50 [4]: 88.5 nM
IC50 [5]: 166 nM

O=C1NCCOc2ccc(F)cc2[C@@H](CCF)Nc2ccn3ncc1c3n2 [Compound 23, (13R)-11-fluoro-13-(2-fluoroethyl)-6,7,13,14-tetrahydro-1,15-ethenopyrazolo[4,3-f][1,4,8,10]benzoxatriazacyclotridecin-4(5H)-one]
IC50 [1]: 1.3 nM
IC50 [2]: 236 nM
GI50 [3]: 5.1 nM
GI50 [4]: 459 nM

C[C@H]1Nc2ccn3ncc(c3n2)C(=O)N[C@H]2CNC[C@H]2Oc2ccc(F)cc21 [Compound 48, (3aR,9R,17aS)-7-fluoro-9-methyl-1,2,3,3a,9,10,17,17a-octahydro-16H-11,13-ethenopyrazolo[4,3-f]pyrrolo[3,4-b][1,4,8,10]benzoxatriazacyclotridecin-16-one]
IC50 [1]: > 10000 nM
IC50 [2]: > 10000 nM
GI50 [4]: 5000 nM

C[C@H]1Nc2ccn3ncc(c3n2)C(=O)N[C@@H]2CCCC[C@H]2Oc2ccc(F)cc21 [Compound 45, (4aR,10R,18aR)-8-fluoro-10-methyl-2,3,4,4a,10,11,18,18a-octahydro-12,14-ethenodibenzo[b,l]pyrazolo[4,3-f][1,4,8,10]oxatriazacyclotridecin-17(1H)-one]
IC50 [1]: 0.4 nM
IC50 [2]: 206 nM
GI50 [4]: > 10000 nM
